Legend:
[1] = Cytotoxicity against Mus musculus (mouse) EAC cells assessed as dead cell at ED25 ug/cm'3 after 2 hr by trypan blue assay; type: functional, Ehrlich
[2] = Cytotoxicity against Mus musculus (mouse) EAC cells assessed as dead cell at ED100 ug/cm'3 after 2 hr by trypan blue assay; type: functional, Ehrlich
[3] = Cytotoxicity against Mus musculus (mouse) EAC cells assessed as dead cell at ED50 ug/cm'3 after 2 hr by trypan blue assay; type: functional, Ehrlich
[4] = Antioxidant activity assessed as inhibition of ABTS free radical; type: functional; design: concentration or dose not given beside the values; details: dose or concentration not given here

Compound | Activity [1] [%] | Activity [2] [%] | Activity [3] [%] | inhibition [4] [%]
N#CCC(=O)Nc1nc(-c2cc3ccccc3oc2=O)cs1 | 1.8 | 8 | 3.8 | 70.3
O=C1O[C@H]([C@@H](O)CO)C(O)=C1O |  |  |  | 84
N#C/C(C(=O)Nc1nc(-c2cc3ccccc3oc2=O)cs1)=C(\Nc1ccccc1)SCC(=O)c1cc2ccccc2oc1=O | 1.5 | 6.8 | 3.2 | 23.8
N#C/C(C(=O)Nc1nc(-c2cc3ccccc3oc2=O)cs1)=C1/SC(=O)CN1c1ccccc1 | 1.6 | 7 | 3.1 | 28.9
Nc1c(C(=O)c2cc3ccccc3oc2=O)sc(Nc2ccccc2)c1C(=O)Nc1nc(-c2cc3ccccc3oc2=O)cs1 | 1.7 | 7.1 | 3 | 35.4
Nc1c(C(=O)c2cc3ccccc3oc2=O)sc(Nc2ccccc2)c1-c1nc2ccccc2s1 | 1.6 | 5.7 | 2.9 | 5.94
O=C(CBr)c1cc2ccccc2oc1=O |  |  |  | 50.2
O=c1[nH]cc(F)c(=O)[nH]1 [FLUOROURACIL] | 37 | 93 | 58 | 
CC(=O)c1cc2ccccc2oc1=O |  |  |  | 63.6
Nc1c(C(=O)c2cc3ccccc3oc2=O)sc(Nc2ccccc2)c1C(=O)N1NC(=O)C2C3c4ccccc4C(c4ccccc43)C2C1=O (stereo not drawn) | 1.6 | 6.1 | 3 | 13.7
N#C/C(=C1/SC=C(c2cc3ccccc3oc2=O)N1c1ccccc1)c1nc2ccccc2s1 | 1.5 | 5.7 | 3 | 4.15
Nc1c(C(=O)c2cc3ccccc3oc2=O)sc(S)c1-c1nc2ccccc2s1 |  |  |  | 75.6
Nc1c(C(=O)c2cc3ccccc3oc2=O)sc(Nc2ccccc2)c1-c1nc2ccccc2[nH]1 | 1.4 | 5.6 | 2.6 | 0.19
N=c1oc2ccccc2cc1C(=O)Nc1nc(-c2cc3ccccc3oc2=O)cs1 | 1.3 | 4.9 | 2.1 | 61.4
N#C/C(C(=O)N1NC(=O)C2C3c4ccccc4C(c4ccccc43)C2C1=O)=C1/SC=C(c2cc3ccccc3oc2=O)N1c1ccccc1 (stereo not drawn) | 1.1 | 5.4 | 2.6 | 5.74
Nc1nc(-c2cc3ccccc3oc2=O)cs1 |  |  |  | 74.3

Reference: ChEMBL document CHEMBL3045320, “Synthesis, antitumor and antioxidant evaluation of some new thiazole and thiophene derivatives incorporated coumarin moiety” (2012)
